Assay results taken from the supplement of paper PMC10627819.

Legend:
S. aureus Newman = assay: Bliss interaction score (quartile over a dose matrix) (fitness difference); higher = more antagonism (negative = synergy)
Summary of the method: (§1)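 The Bliss score is observed minus expected fitness, where expected fitness is the product of the single-drug fitness values inferred from the combination data. Fitness is the OD595 at the onset of stationary phase over the plate's robust no-drug mean, capped at 1. Scores are summarised by quartiles over technical, biological and donor/recipient replicates.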

S. aureus DSM 20231 = assay: as above
Summary of the method: as §1

B. subtilis 168 = assay: as above
Summary of the method: as §1

S. pneumoniae D39V [1] = assay: as above
Summary of the method: as §1

S. pneumoniae D39V [2] = assay: fitness (endpoint OD595 vs no drug) (fraction); higher = more growth
Summary of the method: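 With the first reading as background, OD595 was measured every 30 min for 14 h in 384-well plates kept at 37 °C and inoculated at OD595 0.01. TSB, LB Lennox or CY was the medium. Fitness is the optical density at the transition into stationary phase divided by the robust mean of no-drug control wells, with a cap of 1.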
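For Bliss interaction score (quartile over a dose matrix) in this document: first quartile when negative (synergy) and third quartile when positive (antagonism).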
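For fitness (endpoint OD595 vs no drug) in this document: OD595 on entry to stationary phase over no-drug wells; at most 1.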

Clc1ccc(COC(Cn2ccnc2)c2ccc(Cl)cc2Cl)c(Cl)c1 (stereo not given) [Miconazole] + COc1c(N2C[C@@H]3CCCN[C@@H]3C2)c(F)cc2c(=O)c(C(=O)O)cn(C3CC3)c12 [Moxifloxacin]
Settings | Bliss interaction score
B. subtilis 168 | -0.0223
S. aureus DSM 20231 | -0.059
S. aureus Newman | 0.0536
S. pneumoniae D39V [1] | 0.0598

fitness, S. pneumoniae D39V [2]
Settings | first compound 1.073 µg/mL | first compound 1.25 µg/mL | first compound 2.145 µg/mL | first compound 2.5 µg/mL | first compound 4.29 µg/mL | first compound 5 µg/mL
partner 0.0037 µg/mL | 0.959 | – | 0.951 | – | 0.802 | –
partner 0.005 µg/mL | – | 0.935 | – | 0.926 | – | 0.953
partner 0.0075 µg/mL | 0.986 | – | 0.942 | – | 0.796 | –
partner 0.01 µg/mL | – | 0.925 | – | 0.936 | – | 0.961
partner 0.015 µg/mL | 0.957 | – | 0.942 | – | 0.682 | –
partner 0.02 µg/mL | – | 0.825 | – | 0.828 | – | 0.911

Clc1ccc(COC(Cn2ccnc2)c2ccc(Cl)cc2Cl)c(Cl)c1 (stereo not given) [Miconazole] + COc1ccc(C[C@H](N)C(=O)N[C@H]2[C@@H](O)[C@H](n3cnc4c(N(C)C)ncnc43)O[C@@H]2CO)cc1 [Puromycin]
Settings | Bliss interaction score
B. subtilis 168 | 0.0522
S. aureus DSM 20231 | 0.0532
S. aureus Newman | 0.0603
S. pneumoniae D39V [1] | 0.124

fitness, S. pneumoniae D39V [2]
Settings | first compound 1.073 µg/mL | first compound 2.145 µg/mL | first compound 4.29 µg/mL
partner 1 µg/mL | 0.966 | ≥ 1 | 0.968
partner 2 µg/mL | 0.996 | ≥ 1 | 0.976
partner 4 µg/mL | 0.879 | 0.903 | 0.846

fitness, S. pneumoniae D39V [2], one replicate
Settings | first compound 1.25 µg/mL | first compound 2.5 µg/mL | first compound 5 µg/mL
partner 1 µg/mL | 0.884 | 0.91 | ≥ 1
partner 2 µg/mL | 0.914 | 0.903 | 0.874
partner 4 µg/mL | 0.742 | 0.717 | 0.809

Clc1ccc(COC(Cn2ccnc2)c2ccc(Cl)cc2Cl)c(Cl)c1 (stereo not given) [Miconazole] + C[n+]1ccc(-c2cc[n+](C)cc2)cc1 [Paraquat]
Settings | Bliss interaction score
B. subtilis 168 | 0.0318
S. aureus DSM 20231 | 0.0436
S. aureus Newman | -0.0378
S. pneumoniae D39V [1] | -0.0527

fitness, S. pneumoniae D39V [2]
Settings | first compound 1.073 µg/mL | first compound 2.145 µg/mL | first compound 4.29 µg/mL
partner 1.5 µg/mL | ≥ 1 | 0.999 | 0.925
partner 3 µg/mL | ≥ 1 | 0.987 | 0.908
partner 6 µg/mL | 0.979 | 0.983 | 0.824

fitness, S. pneumoniae D39V [2], one replicate
Settings | first compound 1.25 µg/mL | first compound 2.5 µg/mL | first compound 5 µg/mL
partner 1.5 µg/mL | ≥ 1 | 0.983 | 0.944
partner 3 µg/mL | ≥ 1 | ≥ 1 | 0.997
partner 6 µg/mL | 0.957 | 0.932 | 0.885

Clc1ccc(COC(Cn2ccnc2)c2ccc(Cl)cc2Cl)c(Cl)c1 (stereo not given) [Miconazole] + Cc1cc(NS(=O)(=O)c2ccc(N)cc2)no1 [Sulfamethoxazol]
Settings | Bliss interaction score
B. subtilis 168 | 0.0845
S. aureus DSM 20231 | 0.0319
S. aureus Newman | 0.0463
S. pneumoniae D39V [1] | 0.0572

fitness, S. pneumoniae D39V [2]
Settings | first compound 1.073 µg/mL | first compound 2.145 µg/mL | first compound 4.29 µg/mL
partner 1 µg/mL | 0.989 | ≥ 1 | 0.946
partner 2 µg/mL | 0.981 | 0.998 | 0.923
partner 4 µg/mL | 0.999 | 0.988 | 0.924

fitness, S. pneumoniae D39V [2], one replicate
Settings | first compound 1.25 µg/mL | first compound 2.5 µg/mL | first compound 5 µg/mL
partner 1 µg/mL | 0.94 | 0.966 | 0.932
partner 2 µg/mL | 0.894 | 0.955 | 0.908
partner 4 µg/mL | 0.892 | 0.876 | 0.864

Clc1ccc(COC(Cn2ccnc2)c2ccc(Cl)cc2Cl)c(Cl)c1 (stereo not given) [Miconazole] + Cc1onc(-c2ccccc2)c1C(=O)N[C@@H]1C(=O)N2[C@@H]1SC(C)(C)[C@@H]2C(=O)O [Oxacillin]
Settings | Bliss interaction score
B. subtilis 168 | 0.0802
S. aureus DSM 20231 | 0.0539
S. aureus Newman | 0.0481
S. pneumoniae D39V [1] | 0.0753

fitness, S. pneumoniae D39V [2]
Settings | first compound 1.073 µg/mL | first compound 1.25 µg/mL | first compound 2.145 µg/mL | first compound 2.5 µg/mL | first compound 4.29 µg/mL | first compound 5 µg/mL
partner 0.01 µg/mL | ≥ 1 | 0.939 | ≥ 1 | 0.938 | 0.928 | 0.946
partner 0.02 µg/mL | 0.977 | 0.864 | 0.906 | 0.874 | 0.716 | 0.892
partner 0.04 µg/mL | – | 0.363 | – | 0.359 | 0.434 | 0.386

Clc1ccc(COC(Cn2ccnc2)c2ccc(Cl)cc2Cl)c(Cl)c1 (stereo not given) [Miconazole] + Cn1nnc(-c2ccc(-c3ccc(N4C[C@H](CO)OC4=O)cc3F)cn2)n1 [Tedizolid]
Settings | Bliss interaction score
B. subtilis 168 | 0.0402
S. aureus DSM 20231 | 0.0592
S. aureus Newman | 0.0625
S. pneumoniae D39V [1] | -0.0671

fitness, S. pneumoniae D39V [2]
Settings | first compound 1.073 µg/mL | first compound 1.25 µg/mL | first compound 2.145 µg/mL | first compound 2.5 µg/mL | first compound 4.29 µg/mL | first compound 5 µg/mL
partner 0.03125 µg/mL | – | 0.96 | – | 0.97 | – | 0.925
partner 0.0625 µg/mL | – | 0.968 | – | 0.929 | – | 0.934
partner 0.125 µg/mL | 0.872 | 0.797 | 0.937 | 0.797 | 0.943 | 0.746
partner 0.25 µg/mL | 0.729 | – | 0.778 | – | 0.829 | –
partner 0.5 µg/mL | 0.413 | – | 0.402 | – | 0.489 | –

Clc1ccc(COC(Cn2ccnc2)c2ccc(Cl)cc2Cl)c(Cl)c1 (stereo not given) [Miconazole] + O=C1CN(/N=C/c2ccc([N+](=O)[O-])o2)C(=O)N1 [Nitrofurantoin]
Settings | Bliss interaction score
B. subtilis 168 | -0.125
S. aureus DSM 20231 | 0.0458
S. aureus Newman | -0.0579
S. pneumoniae D39V [1] | 0.091

fitness, S. pneumoniae D39V [2]
Settings | first compound 1.073 µg/mL | first compound 1.25 µg/mL | first compound 2.145 µg/mL | first compound 2.5 µg/mL | first compound 4.29 µg/mL | first compound 5 µg/mL
partner 1.285 µg/mL | – | 0.987 | – | 0.959 | – | 0.945
partner 2 µg/mL | 0.972 | – | ≥ 1 | – | 0.93 | –
partner 2.57 µg/mL | – | 0.968 | – | 0.954 | – | 0.936
partner 4 µg/mL | 0.988 | – | ≥ 1 | – | 0.949 | –
partner 8 µg/mL | 0.92 | – | 0.951 | – | 0.919 | –

S. pneumoniae D39V [2], partner 5.14 µg/mL, one replicate
Settings | fitness
first compound 1.25 µg/mL | 0.897
first compound 2.5 µg/mL | 0.848
first compound 5 µg/mL | 0.847

Cc1onc(-c2ccccc2)c1C(=O)N[C@@H]1C(=O)N2[C@@H]1SC(C)(C)[C@@H]2C(=O)O [Oxacillin] + CO[C@H]1/C=C/O[C@@]2(C)Oc3c(C)c(O)c4c(O)c(c(/C=N/N5CCN(C)CC5)c(O)c4c3C2=O)NC(=O)/C(C)=C\C=C\[C@H](C)[C@H](O)[C@@H](C)[C@@H](O)[C@@H](C)[C@H](OC(C)=O)[C@@H]1C [Rifampicin]
Settings | Bliss interaction score
B. subtilis 168 | 0.0578
S. aureus DSM 20231 | 0.0464
S. aureus Newman | 0.0684
S. pneumoniae D39V [1] | -0.0851

S. pneumoniae D39V [2], partner 0.025 µg/mL, one replicate
Settings | fitness
first compound 0.01 µg/mL | 0.891
first compound 0.02 µg/mL | 0.801
first compound 0.04 µg/mL | 0.407

S. pneumoniae D39V [2], partner 0.2 µg/mL
Settings | fitness
first compound 0.01 µg/mL | 0.144
first compound 0.02 µg/mL | 0.0871
first compound 0.04 µg/mL | 0.143

C[n+]1ccc(-c2cc[n+](C)cc2)cc1 [Paraquat] + CO[C@H]1/C=C/O[C@@]2(C)Oc3c(C)c(O)c4c(O)c(c(/C=N/N5CCN(C)CC5)c(O)c4c3C2=O)NC(=O)/C(C)=C\C=C\[C@H](C)[C@H](O)[C@@H](C)[C@@H](O)[C@@H](C)[C@H](OC(C)=O)[C@@H]1C [Rifampicin]
Settings | Bliss interaction score
B. subtilis 168 | 0.0618
S. aureus DSM 20231 | 0.0593
S. aureus Newman | 0.0217
S. pneumoniae D39V [1] | -0.0393

S. pneumoniae D39V [2], partner 0.025 µg/mL, one replicate
Settings | fitness
first compound 1.5 µg/mL | 0.869
first compound 3 µg/mL | 0.833
first compound 6 µg/mL | 0.842

fitness, S. pneumoniae D39V [2]
Settings | first compound 1.5 µg/mL | first compound 3 µg/mL | first compound 6 µg/mL
partner 0.05 µg/mL | – | 0.882 | 0.897
partner 0.2 µg/mL | 0.0862 | 0.102 | 0.0798

Cn1c2cccc(=O)c-2nc2ccccc21 [Pyocyanin] + CO[C@H]1/C=C/O[C@@]2(C)Oc3c(C)c(O)c4c(O)c(c(/C=N/N5CCN(C)CC5)c(O)c4c3C2=O)NC(=O)/C(C)=C\C=C\[C@H](C)[C@H](O)[C@@H](C)[C@@H](O)[C@@H](C)[C@H](OC(C)=O)[C@@H]1C [Rifampicin]
Settings | Bliss interaction score
B. subtilis 168 | -0.0612
S. aureus DSM 20231 | 0.031
S. aureus Newman | 0.0295
S. pneumoniae D39V [1] | 0.0928

fitness, S. pneumoniae D39V [2], one replicate
Settings | first compound 0.325 µg/mL | first compound 0.65 µg/mL | first compound 1.3 µg/mL
partner 0.025 µg/mL | 0.917 | 0.942 | 0.765
partner 0.2 µg/mL | – | – | 0.021

fitness, S. pneumoniae D39V [2]
Settings | first compound 0.325 µg/mL | first compound 0.65 µg/mL
partner 0.05 µg/mL | – | 0.885
partner 0.2 µg/mL | 0.0407 | 0.178
